For test [1], the system named is mouse ES cells. In words: Sox17 endoderm induction in mouse ES cell monolayer cultures. Type of test: cell-based. Conditions: mouse ES cells; for EC50: 144 h, treatment for 6 days, immunofluorescence, titration 50 nM to 5 μM, read-out: EC50 of Sox17 expression; for percentage of cells expressing Sox17 after 12 hrs treatment: analysed at day 6; for day of treatment at which endoderm induction peaks: 14 days time course; for percent of total cells expressing Sox17 at day 6 of treatment: αSox17 immunofluorescence. How it is done: Mouse ES cells were routinely cultured on irradiated CF-1 MEF feeder cells in DMEM (Gibco) media supplemented with 15% Fetal Bovine Serum (HyClone FBS, Invitrogen), 2 mM L-glutamine (L-Glu, Gibco), 1.1 mM 2-mercaptoethanol (Gibco), 1 mM nonessential amino acids (Gibco), 1× penicillin/streptomycin (P/S, Gibco) and 5×10^5 units LIF (Chemicon). Cells were passaged at the ratio of 1:6-1:12 every 2-3 days using 0.25% trypsin. To generate the starting population, mouse ES cells was cultured on MEF feeder cells until they reached 80-90% confluence. Prior to differentiation, ES cells were passaged onto gelatin coated plates for 30 min to remove MEFs. MEF depleted ES cells were seeded at 2500 cells per cm^2 on gelatinized plates. After overnight culture, cells were exposed to 25 ng/ml Wnt3a (R&D Systems)+50 ng/ml recombinant Activin A (R&D Systems) or 500 ng/ml Nodal (R&D Systems) in DMEM (Gibco) supplemented with 1×L-Glu and 0.2% FBS (Gibco) for 1 day, then Activin A or Nodal in the same media and cultured for 4-6 days to induce endoderm differentiation. For the chemical inductions, compounds IDE1 and IDE2 (provided by Stuart L. Schreiber) were added at 5 μM concentration in the differentiation media. For pancreatic progenitors induction, the cells were transferred to 50 ng/ml FGF10 (R&D Systems), 0.75 μM KAAD-cyclopamine (Calbiochem) and 2 μM RA (Sigma) or Indolactam V 330 nM (Axxora) in DMEM supplemented with 1×L-Glu, 1×PS, 1×B27 (Invitrogen) for 4 days. SHB431542 was purchased from Sigma. All stock compounds were made with either DMSO or PBS
(§1) Cells were fixed in 4% paraformaldehyde (Sigma) in PBS for 20 min at 4° C. followed by a wash with PBS. Cells were blocked with 10% donkey serum (Jackson Immunoresearch) in PBS/0.1% Triton X and incubated with primary antibodies overnight at 4° C. Secondary antibodies were incubated for 1 h at room temperature. The following antibodies and dilutions were used: goat anti-SOX17, (1:500 R&D systems); rabbit anti-PDX1 (1:200, Chemicon), rabbit anti-FoxA2 (1:500; Upstate), rabbit anti-Dab2 (1:200, Santa Cruz), rabbit anti-SPARC (1:200, Santa Cruz,), mouse anti-AFP (1:100, Sigma), anti-Gata6 (1:50, Santa Cruz Biotech), goat anti-HNF6 (1:200, Santa Cruz Biotech), rabbit anti-RFP/DsRed (1:300, MBL), rabbit anti-GFP (1:200, Molecular Probes). Secondary antibodies were: rhodamine Red-X-conjugated donkey anti-goat antibody, 1:200 (JIRL), Alexa-488-conjugated goat anti-mouse and Alexa-594-conjugated goat anti-rabbit antibodies (1:300, Molecular Probes). Nuclei were visualized by Hoechst 33342 (1:1000, Molecular Probes). Images were taken using an Olympus IX70 Microscope. For quantification images were analyzed for the frequency of SOX17+, FoxA2+ or Pdx1+ cells using Metamorph image analysis software (Molecular Devices) and at least 6 images per well were collected. Data were confirmed in four independent experiments.
Endoderm formation was monitored by Sox17 expression by either flow cytometry detection of Sox17/DsRed or immunofluorescence using anti-Sox17 antibodies. Cells labeled by antibody staining were quantified using Metamorph software ad percentage of total cell number (based on Hoechst 33342 nuclei staining). All conditions were tested in either tri- or quadruplicates.

The test system of test [2] is human ES cells (HUES 4 and 8). In words: Sox17 endoderm induction in human ES cells. Type of test: cell-based. The settings on record: for dose dependence of Sox17 expression: HUES 4 and 8; for percent of cells expressing Sox17: HUES cells, 4 days, IDE1 100 nM, IDE2 200 nM. On the procedure: Human embryonic stem cell lines were cultured essentially as described {Cowan, 2004 #6}. Briefly, HUES4, HUES8 and HUES9 cells are routinely cultured on irradiated CF-1 MEF feeder cells in KnockOut DMEM (Gibco) supplemented with 10% KnockOut Serum Replacement (Gibco), 10% human plasma (Invitrogen), 2 mM L-glutamine (L-Glu, Gibco), 1.1 mM 2-mercaptoethanol (Gibco), 1 mM nonessential amino acids (Gibco), 1× penicillin/streptomycin (PS, Gibco) and 10 ng/ml bFGF (Invitrogen). Cells are split at the ratio of 1:10-1:12 every 4-5 days by using 1 mg/ml collagenase type IV. To induce endoderm formation, HUES cells was cultured on MEF feeder cells till 80-90% confluent, then treated with 100 ng/ml Activin A in advanced RPMI (Gibco) supplemented with 1×L-Glu and 0.2% FBS (Gibco), or with combination of 25 ng/ml Wnt3a (R&D systems)+100 ng/ml Activin A (R&D systems) or were exposed to compounds in the same media. At days 4 and 6 of culture cells were analysed for endodermal marker expression, Sox17.
as §1

Test [3] concerns mouse ES cells. Put plainly: Extra-embryonic endoderm markers and morphology of induced Sox17+ cells (immunostaining). Type of test: cell-based. The settings on record: for morphology of induced Sox17+ cells: immunostaining with α-Sox17 antibody; for expression of extra-embryonic endoderm (EE) markers GATA4, SPARC, AFP, Dab2 in induced Sox17+ cells: mouse ES cells, immunostaining. On the procedure:
as §1
During evaluation of primary hit compounds, the inventors observed that small molecules induced Sox17+ cells with two distinct morphologies. One class, including IDE1 and IDE2, induced clustered populations of Sox17+ cells, whereas other compounds led to the formation of a dispersed population of Sox17+ cells. […] Sox17 is expressed in definitive endoderm, but also in extra-embryonic endoderm, and in other germ layer derivatives at later stages of development including vascular endothelium (Kanai-Azuma et al., 2002; Matsui et al., 2006). Since the positive identification of definitive endoderm is hindered by the lack of unique markers that are expressed exclusively there, and not present in other types of endoderm, the inventors performed a negative selection and tested for markers of extra-embryonic endoderm. It was found, that the vast majority (>95%) of the dispersed Sox17+ cells (class II) also expressed extra-embryonic endoderm markers including Gata4 (Morrisey et al., 1996), SPARC (Mason et al., 1986), AFP (Dziadek, 1979) and Dab2 (Yang et al., 2002) (Suppl. FIG. 2B).

Test [4] concerns Smad2. In words: Western blot analysis of Smad2 phosphorylation in ES cell lysates. The class given is cell-based, mouse. The settings on record: ES cell lysates, after 24 hrs or longer. On the procedure:
Cells were lysed in 1×RIPA lysis buffer in the presence of protease inhibitor mixture (Roche)/1% phosphatase inhibitor mixture (Roche). Proteins were separated by 10% Tris-Glycine SDS/PAGE (Bio-rad) under denaturing conditions and transferred to a nitrocellulose membrane. After blocking with 5% skim milk in PBS/0.1% Triton X, the membrane was incubated with primary antibodies against phospho-Smad2 (1:1000, Cell Signaling) overnight at 4° C. The membrane was then washed, incubated with anti-mouse/rabbit peroxidase-conjugated affinity-purified secondary antibody (1:1000, Cell Signaling) at room temperature for 1 h, and developed by SuperSignal chemiluminescence (Pierce).
For orientation: Immunoblotting shows a protein as a band on a membrane.

In general, EC50 refers to the concentration needed to bring the measured effect to its halfway point.

Structures are written as SMILES. Several values for one entry are separate records, joined by “and”; a condition that tells them apart may be missing. Equal entries are not always repeated. Entries after “also recorded” stand apart in the source; their conditions may differ.

As for `O=C(O)CCCCCC(=O)N/N=C/c1ccccc1C(=O)O` [IDE1], in test [1], the EC50 amounted to 125 nM, the “percentage of cells expressing Sox17 after 12 hrs treatment” value is on record as approximately 40%, the “day of treatment at which endoderm induction peaks” value was 6 days and the “percentage of cells expressing Sox17 at day 2 of treatment” value came out at 34%. In addition, the “percent of total cells expressing Sox17 at day 6 of treatment” value in test [1] is 80% and 81±14%. In test [2], the “dose dependence of Sox17 expression” value is reported as “dose-depended manner” and the “percent of cells expressing Sox17” value is reported as 62±8.1%. In addition, in test [3], the “morphology of induced Sox17+ cells” value is “compact, epithelial sheet” and the “expression of extra-embryonic endoderm (EE) markers GATA4, SPARC, AFP, Dab2 in induced Sox17+ cells” value is on record as “marginal expression of EE markers; also recorded: no or a negligible number of cells positive for extra-embryonic markers”. Further, the “phosphorylation of Smad2 / activation of the TGF-β pathway” value in test [4] was “comparable to that induced by Activin A treatment; also recorded: activation of the TGF-β pathway”.

As for `O=C(O)CCCCCC(=O)NN=C1CCCC1` [IDE2], in test [1], the EC50 was 223 nM, the “percentage of cells expressing Sox17 after 12 hrs treatment” value was approximately 40%, the “day of treatment at which endoderm induction peaks” value came to 6 days and the “percentage of cells expressing Sox17 at day 2 of treatment” value is given as 32%. For the same compound, the “percent of total cells expressing Sox17 at day 6 of treatment” value in test [1] is 72% and 76±14%. Also, in test [1] (day 4), the “percentage of cells expressing Sox17 at day 4 of treatment” value worked out at 42±3.83%. In test [2], the “dose dependence of Sox17 expression” value is listed as “dose-depended manner” and the “percent of cells expressing Sox17” value is on record as 57±6.7%. Further, in test [3], the “morphology of induced Sox17+ cells” value is on record as “compact, epithelial sheet” and the “expression of extra-embryonic endoderm (EE) markers GATA4, SPARC, AFP, Dab2 in induced Sox17+ cells” value was “only rarely detected; also recorded: no or a negligible number of cells positive for extra-embryonic markers”. In addition, the “phosphorylation of Smad2 / activation of the TGF-β pathway” value in test [4] was “comparable to that induced by Activin A treatment; also recorded: activation of the TGF-β pathway”.

For the origin of these results see patent US8927280B2, “Compositions and methods for promoting the generation of definitive endoderm” (President and Fellows of Harvard College, priority 2009, dated 2015).
